In patent US5428059A, “Benzopyran derivatives and an anti-allergic agent possessing the same as the active ingredient” (Dainippon Ink & Chemicals, Inc., priority 1991, dated 1995):

system: Hartley-type male guinea pigs; test: Guinea Pig Homogeneous Skin Passive Anaphylaxis Assay (PCA reaction); format: in vivo, guinea pig (Hartley-type); details: Cavia porcellus, 10 mg/kg oral, 48 h after sensitization, read-out: Allergic reaction inhibitory index (%)
Method: In order to confirm the anti-allergic action of the compounds according to the present invention, as an anti-allergic action confirmation assay, the widely used Guinea Pig Homogeneous Skin Passive Anaphylaxis Assay (PCA Reaction Assay; Passive Cutaneous Anaphylaxis Reaction Assay) was carried out. The assay method used will be explained in the following.
Assay method: Hartley-type male guinea pigs (body weight: 250~300 g) were sensitized by the following procedure; a mixture of 2 μg of egg albumin (OVA) and 5 μg of aluminium hydroxide gel was administered intraperitoneally 3 times every 2 weeks, and the anti-OVA blood serum was manufactured.
The anti-blood serum obtained was then diluted 120 times using physiological saline solution, and then to groups each containing 6 shaved guinea pigs, was injected at a quantity of 0.05 ml respectively, into two positions in the back portion, inside the skin of each animal.
After the 48th hour of sensitization, 10 mg/kg of the test substance to be tested was orally administered, following which a mixture of 2 mg OVA and 5 mg of Evans Blue was administered by intraveneous injection into the hind leg, triggering the anaphylaxis reaction. As the positive control, Tranilast, a well known anti-allergic agent, was used, and in the same manner as the substances to be tested, 100 mg/kg of it was orally administered after the 48th hour of sensitization.
30 minutes after triggering the reaction, the animals were bled to death under ether anesthesia, and their back portion skins were peeled off. The long and short diameters of pigment leakage spots on the interior surface of the skins were measured, and the product of these (mm^2) were entered into formula 1 as "pigment leakage amount", from which the allergic reaction inhibitory index wins calculated. [formula]
I: Allergic reaction inhibitory index (%)
A: Pigment leakage amount of solvent control group
B: Pigment leakage amount of test substance group
C: Pigment leakage amount of […]

Point of comparison: CC(C)Oc1c(O)c(=O)oc2c(OC(C)C)cccc12 [Compound 134, 3-hydroxy-4,8-(disopropoxy)-2H-1-benzopyran-2-one], inhibition in vivo at 10 mg/kg 30%. Against it:
- COc1ccc2c(OC(=O)c3ccccc3)c(OC)c(=O)oc2c1 [Compound 30, 3,7-(dimethoxy)-4-(benzoyloxy)-2H-1-benzopyran-2-one] — higher, 31%
- CC(C)Oc1cccc2oc(=O)c(O)c(OC(C)C)c12 [Compound 215, 3-hydroxy-4,5-(diisopropoxy)-2H-1-benzopyran-2-one] — higher, 34%
- CC(C)=CCC/C(C)=C/COc1cccc2oc(=O)c(O)c(OC/C=C(\C)CCC=C(C)C)c12 [Compound 254, 3-hydroxy-4,5-(digeranyloxy)-2H-1-benzopyran-2-one] — the same, 30%
- COc1cccc2c(OC/C=C(\C)CCC=C(C)C)c(O)c(=O)oc12 [Compound 121, 3-hydroxy-4-(geranyloxy)-8-(methoxy)-2H-1-benzopyran-2-one] — the same, 30%
- CC(C)=CCC/C(C)=C/COc1c(OC/C=C(\C)CCC=C(C)C)c2c(O)cccc2oc1=O [Compound 193, 3,4-(digeranyloxy)-5-hydroxy-2H-1-benzopyran-2-one] — the same, 30%
- CC(C)=CCC/C(C)=C/COc1c(O)c2cccc(OC/C=C(\C)CCC=C(C)C)c2oc1=O [Compound 167, 3,8-(digeranyloxy)-4-hydroxy-2H-1-benzopyran-2-one] — the same, 30%
- O=C(Oc1c(O)c2ccc(O)cc2oc1=O)c1ccccc1 [Compound 4, 3-(benzoyloxy)-4,7-dihydroxy-2H-1-benzopyran-2-one] — higher, 43%
- CC(=O)Oc1c(OC/C=C(\C)CCC=C(C)C)c(=O)oc2cc(O)ccc12 [Compound 21, 3-(geranyloxy)-4-(acetoxy)-7-hydroxy-2H-1-benzopyran-2-one] — higher, 33%
- O=c1oc2ccc(O)cc2c(O)c1O [Compound 263, 3,4,6-trihydroxy-2H-1-benzopyran-2-one] — higher, 42%
- O=C(Oc1c(O)c2c(O)cccc2oc1=O)c1ccccc1 [Compound 176, 3-(benzoyloxy)-4,5-dihydroxy-2H-1-benzopyran-2-one] — higher, 34%
- COc1ccc2oc(=O)c(OC(C)=O)c(O)c2c1 [Compound 278, 3-(acetoxy)-4-(hydroxy)-6-(methoxy)-2H-1-benzopyran-2-one] — higher, 36%
- COc1cccc2oc(=O)c(OC/C=C(\C)CCC=C(C)C)c(OC/C=C(\C)CCC=C(C)C)c12 [Compound 209, 3,4-(digeranyloxy)-5-(methoxy)-2H-1-benzopyran-2-one] — higher, 33%
- CCCCCCCCCCOc1c(OC(C)=O)c(=O)oc2c(OC(C)C)cccc12 [Compound 136, 3-(acetoxy)-4-(decyloxy)-8-(isopropoxy)-2H-1-benzopyran-2-one] — higher, 33%
- CCCCCCCCCCOc1c(OC(C)C)c2ccc(OC/C=C(\C)CCC=C(C)C)cc2oc1=O [Compound 80, 3-(decyloxy)-4-(isopropoxy)-7-(geranyloxy)-2H-1-benzopyran-2-one] — the same, 30%
- CC(=O)Oc1c(O)c2cc(O)ccc2oc1=O [Compound 264, 3-(acetoxy)-4,6-(dihydroxy)-2H-1-benzopyran-2-one] — higher, 36%
- CC(C)Oc1cccc2c(O)c(OC(=O)c3ccccc3)c(=O)oc12 [Compound 129, 3-(benzoyloxy)-4-hydroxy-8-(isopropoxy)-2H-1-benzopyran-2-one] — higher, 36%
- CCCCCCCCCCOc1c(OC(C)=O)c(=O)oc2c(OC)cccc12 [Compound 118, 3-(acetoxy)-4-(decyloxy)-8-(methoxy)-2H-1-benzopyran-2-one] — higher, 32%
- CCCCCCCCCCOc1ccc2c(OC(C)=O)c(O)c(=O)oc2c1 [Compound 60, 3-hydroxy-4-(acetoxy)-7-(decyloxy)-2H-1-benzopyran-2-one] — higher, 35%
- COc1c(OC/C=C(\C)CCC=C(C)C)c(=O)oc2cc(O)ccc12 [Compound 24, 3-(geranyloxyl)-4-(methoxy)-7-hydroxy-2H-1-benzopyran-2-one] — higher, 33%
- CC(=O)Oc1c(OC(C)=O)c2cccc(OC(C)C)c2oc1=O [Compound 132, 3,4-(diacetoxy)-8-(isopropoxy)-2H-1-benzopyran-2-one] — higher, 32%
- CCCCCCCCCCOc1c(O)c2c(OC(C)C)cccc2oc1=O [Compound 214, 3-(decyloxy)-4-hydroxy-5-(isopropoxy)-2H-1-benzopyran-2-one] — higher, 38%
- COc1cccc2c(OC(=O)c3ccccc3)c(OC(C)C)c(=O)oc12 [Compound 119, 3-(isopropoxy)-4-(benzoyloxy)-8-(methoxy)-2H-1-benzopyran-2-one] — the same, 30%
- CCCCCCCCCCOc1cccc2c(OC/C=C(\C)CCC=C(C)C)c(OC(=O)c3ccccc3)c(=O)oc12 [Compound 154, 3-(benzoyloxy)-4-(geranyloxy)-8-(decyloxy)-2H-1-benzopyran-2-one] — higher, 31%
- COc1c(OC/C=C(\C)CCC=C(C)C)c2cccc(OC(C)C)c2oc1=O [Compound 141, 3-(methoxy)-4-(geranyloxy)-8-(isopropoxy)-2H-1-benzopyran-2-one] — higher, 32%
- CC(C)Oc1ccc2c(OC(=O)c3ccccc3)c(OC(C)C)c(=O)oc2c1 [Compound 52, 3,7-(diisopropoxy)-4-(benzoyloxy)-2H-1-benzopyran-2-one] — higher, 32%
- CCCCCCCCCCOc1cccc2oc(=O)c(OC(=O)c3ccccc3)c(O)c12 [Compound 229, 3-(benzoyloxy)-4-hydroxy-5-(decyloxy)-2H-1-benzopyran-2-one] — higher, 37%
- COc1c(OC/C=C(\C)CCC=C(C)C)c(=O)oc2c(O)cccc12 [Compound 107, 3-(geranyloxy)-4-(methoxy)-8-hydroxy-2H-1-benzopyran-2-one] — higher, 33%
- COc1c(O)c(=O)oc2ccc(O)cc12 [Compound 267, 3,6-(dihydroxy)-4-(methoxy-2H-1-benzopyran-2-one] — higher, 34%
- CCCCCCCCCCOc1c(OC(C)C)c2cccc(OC/C=C(\C)CCC=C(C)C)c2oc1=O [Compound 164, 3-(decyloxy)-4-(isopropoxy)-8-(geranyloxy)-2H-1-benzopyran-2-one] — higher, 33%
- CCCCCCCCCCOc1cccc2oc(=O)c(OC)c(OC(=O)c3ccccc3)c12 [Compound 236, 3-(methoxy)-4-(benzoyloxy)-5-(decyloxy)-2H-1-benzopyran-2-one] — higher, 31%
- CC(=O)Oc1c(O)c(=O)oc2c(OC/C=C(\C)CCC=C(C)C)cccc12 [Compound 160, 3-hydroxy-4-(acetoxy)-8-(geranyloxy)-2H-1-benzopyran-2-one] — higher, 34%
- CCCCCCCCCCOc1cccc2oc(=O)c(O)c(OC(C)=O)c12 [Compound 231, 3-hydroxy-4-(acetoxy)-5-(decyloxy)-2H-1-benzopyran-2-one] — higher, 31%
- CCCCCCCCCCOc1cccc2oc(=O)c(OC(C)=O)c(OC(C)C)c12 [Compound 235, 3-(acetoxy)-4-(isopropoxy)-5-(decyloxy)-2H-1-benzopyran-2-one] — the same, 30%
- CC(=O)Oc1c(OC(=O)c2ccccc2)c(=O)oc2c(OC/C=C(\C)CCC=C(C)C)cccc12 [Compound 161, 3-(benzoyloxy)-4-(acetoxy)-8-(geranyloxy)-2H-1-benzopyran-2-one] — higher, 31%
- COc1cccc2c(O)c(OC/C=C(\C)CCC=C(C)C)c(=O)oc12 [Compound 120, 3-(geranyloxy)-4-hydroxy-8-(methoxy)-2H-1-benzopyran-2-one] — higher, 33%
- CCCCCCCCCCOc1cccc2oc(=O)c(OC/C=C(\C)CCC=C(C)C)c(OC(C)=O)c12 [Compound 239, 3-(geranyloxy)-4-(acetoxy)-5-(decyloxy)-2H-1-benzopyran-2-one] — higher, 31%
- COc1c(OC/C=C(\C)CCC=C(C)C)c2cccc(OC)c2oc1=O [Compound 125, 3,8-(dimethoxy)-4-(geranyloxy)-2H-1-benzopyran-2-one] — higher, 31%
- CC(=O)Oc1c(O)c(=O)oc2cc(OC/C=C(\C)CCC=C(C)C)ccc12 [Compound 76, 3-hydroxy-4-(acetoxy)-7-(geranyloxy)-2H-1-benzopyran-2-one] — higher, 32%
- CC(C)=CCC/C(C)=C/COc1c(OC(=O)c2ccccc2)c(=O)oc2c(OC/C=C(\C)CCC=C(C)C)cccc12 [Compound 170, 3-(benzoyloxy)-4,8-(digeranyloxy)-2H-1-benzopyran-2-one] — higher, 31%
- COc1cccc2oc(=O)c(OC/C=C(\C)CCC=C(C)C)c(O)c12 [Compound 203, 3-(geranyloxy)-4-hydroxy-5-(methoxy)-2H-1-benzopyran-2-one] — higher, 41%
- CCCCCCCCCCOc1ccc2c(OC)c(OC(C)C)c(=O)oc2c1 [Compound 66, 3-(isopropoxy)-4-(methoxy)-7-(decyloxy)-2H-1-benzopyran-2-one] — the same, 30%
